# Test results reported in patent publication US20260325533A1, “CDK INHIBITOR COMPOUNDS” (ALEKSIA THERAPEUTICS, INC., priority 2023, published 2026).
# Like-named read-outs stand apart in the source and are kept apart here.
# Assays:
# Assay type in all cases: biochemical
# [1] = molecular target: CDK1/CCNB1 (Homo sapiens, UniProt P06493); test: CDK1 homogeneous time-resolved fluorescence (HTRF) kinase assay; details: CDK1/CCNB
# Procedure, shortened: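 High-ATP (1 mM) HTRF assay with 0.5 nM CDK1/cyclin B1 and 50 nM ULight-4E-BP1 (Thr37/46) substrate, 60 min at 23 °C after 20-min compound preincubation. IC50 values come from dose-response curves.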
# [2] = molecular target: CDK6/CCND1 (Homo sapiens, UniProt Q00534); test: CDK6 homogeneous time-resolved fluorescence (HTRF) kinase assay; details: CDK6/CCND
# CDK6/CCND1, sequence (Q00534 whole entry): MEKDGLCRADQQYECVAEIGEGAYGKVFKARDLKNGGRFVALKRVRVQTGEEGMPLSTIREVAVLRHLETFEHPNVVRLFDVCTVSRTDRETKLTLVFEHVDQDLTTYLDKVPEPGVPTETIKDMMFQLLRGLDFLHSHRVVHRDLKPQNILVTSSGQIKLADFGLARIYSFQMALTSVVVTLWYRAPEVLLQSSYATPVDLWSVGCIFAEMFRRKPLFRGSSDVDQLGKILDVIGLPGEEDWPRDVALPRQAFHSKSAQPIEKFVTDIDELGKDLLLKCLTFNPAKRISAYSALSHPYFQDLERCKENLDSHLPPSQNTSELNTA
# CDK6/CCND1, sequence (P24385 whole entry partner): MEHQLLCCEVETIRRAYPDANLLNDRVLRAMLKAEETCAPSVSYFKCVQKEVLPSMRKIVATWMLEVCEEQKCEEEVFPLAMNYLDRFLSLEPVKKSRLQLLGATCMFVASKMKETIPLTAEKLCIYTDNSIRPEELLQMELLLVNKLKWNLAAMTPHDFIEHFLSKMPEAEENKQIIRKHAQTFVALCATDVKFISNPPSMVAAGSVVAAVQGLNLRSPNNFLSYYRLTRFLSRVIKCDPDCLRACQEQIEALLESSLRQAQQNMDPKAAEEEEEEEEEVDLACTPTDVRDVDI
# Procedure, shortened: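 Enzyme pre-incubated 20 min at 23 °C with compound, then reacted 60 min at 23 °C with 1 mM ATP and 50 nM ULight-4E-BP1 (Thr37/46) peptide; 1 nM enzyme, 1% DMSO. EDTA-stopped, Eu-anti-phospho antibody TR-FRET read (665 nm or 665/615 ratio); 11-point half-log titration from 10 μM gave IC50.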
# [3] = molecular target: CDK2/CCNE1 (Homo sapiens, UniProt P24941); test: CDK2 homogeneous time-resolved fluorescence (HTRF) kinase assay; details: CDK2/CCNE
# Procedure, shortened: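 3 nM CDK2/CCNE1 was preincubated with compound for 20 min at 23 °C in HEPES buffer (pH not stated), then reacted 60 min with 1 mM ATP and 50 nM ULight-4E-BP1 (Thr37/46) peptide. After EDTA stop, Eu-anti-phospho-4E-BP1 antibody (2 nM) was added for 60 min and TR-FRET read at 665 nm.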
# [4] = molecular target: CDK4/CCND3 (Homo sapiens, UniProt P11802); test: CDK4 homogeneous time-resolved fluorescence (HTRF) kinase assay; details: CDK4/CCND
# CDK4/CCND3, sequence (P11802 whole entry): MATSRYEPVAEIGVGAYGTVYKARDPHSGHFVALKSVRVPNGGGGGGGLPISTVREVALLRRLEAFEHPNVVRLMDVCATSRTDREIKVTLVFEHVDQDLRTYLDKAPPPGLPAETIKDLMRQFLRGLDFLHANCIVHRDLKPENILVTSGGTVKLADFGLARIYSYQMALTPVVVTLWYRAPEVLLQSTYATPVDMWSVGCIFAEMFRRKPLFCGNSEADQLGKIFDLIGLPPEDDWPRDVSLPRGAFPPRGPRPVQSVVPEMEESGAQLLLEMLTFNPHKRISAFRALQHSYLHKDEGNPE
# CDK4/CCND3, sequence (P30281 whole entry partner): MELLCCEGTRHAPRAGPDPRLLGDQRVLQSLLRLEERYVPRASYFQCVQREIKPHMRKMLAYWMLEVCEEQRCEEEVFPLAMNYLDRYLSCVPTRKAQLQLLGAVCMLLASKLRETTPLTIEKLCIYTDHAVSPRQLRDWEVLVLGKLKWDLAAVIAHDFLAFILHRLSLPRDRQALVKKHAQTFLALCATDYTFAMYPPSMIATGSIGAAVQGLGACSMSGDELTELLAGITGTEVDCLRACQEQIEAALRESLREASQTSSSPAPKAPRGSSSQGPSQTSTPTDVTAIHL
# Procedure, shortened: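 CDK4/CCND3 at 1.5 nM was preincubated with compound for 20 min at 23 °C, then reacted for 60 min with 1 mM ATP and 50 nM ULight-4E-BP1 (Thr37/46) peptide. The reaction was stopped with EDTA, and phosphorylation was read by HTRF with a Eu-anti-phospho antibody. IC50 values came from 11-point half-log titrations, typically from 10 μM.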
# [5] = x = IC50 >250 nM, read-out: CDK1/CCNB IC50 (>250 nM column)
# [6] = x = IC50 >250 nM, read-out: CDK6/CCND IC50 (>250 nM column)
# [7] = x = IC50 25-250 nM, read-out: CDK2/CCNE IC50 (25-250 nM)
# [8] = x = IC50 >250 nM, read-out: CDK4/CCND IC50 (>250 nM column)
# [9] = x = IC50 <25 nM, read-out: CDK2/CCNE IC50 (<25 nM)
# [10] = x = IC50 25-250 nM, read-out: CDK4/CCND IC50 (25-250 nM)
# CDK1/CCNB1, sequence (P06493 whole entry): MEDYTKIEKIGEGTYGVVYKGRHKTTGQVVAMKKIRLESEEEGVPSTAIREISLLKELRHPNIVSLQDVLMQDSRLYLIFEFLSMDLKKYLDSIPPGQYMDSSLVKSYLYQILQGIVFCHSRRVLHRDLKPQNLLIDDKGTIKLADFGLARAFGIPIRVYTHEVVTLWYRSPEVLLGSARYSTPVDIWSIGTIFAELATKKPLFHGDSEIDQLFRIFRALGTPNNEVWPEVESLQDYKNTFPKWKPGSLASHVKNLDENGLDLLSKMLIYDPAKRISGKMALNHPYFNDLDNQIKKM
# CDK1/CCNB1, sequence (P14635 whole entry partner): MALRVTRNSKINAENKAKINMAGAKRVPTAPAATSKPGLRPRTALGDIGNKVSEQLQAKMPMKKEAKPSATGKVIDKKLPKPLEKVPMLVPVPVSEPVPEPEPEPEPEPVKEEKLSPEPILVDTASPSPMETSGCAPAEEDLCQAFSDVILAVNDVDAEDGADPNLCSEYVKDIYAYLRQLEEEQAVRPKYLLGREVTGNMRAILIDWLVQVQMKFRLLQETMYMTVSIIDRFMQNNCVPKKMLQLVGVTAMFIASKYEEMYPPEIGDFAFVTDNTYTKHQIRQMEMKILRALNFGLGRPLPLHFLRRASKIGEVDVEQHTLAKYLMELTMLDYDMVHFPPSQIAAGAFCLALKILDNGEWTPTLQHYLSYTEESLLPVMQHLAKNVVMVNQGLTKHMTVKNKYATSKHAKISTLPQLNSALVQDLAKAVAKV
"IC50 [1, 5] [nM]","IC50 [2, 6] [nM]","IC50 [3, 7] [nM]","IC50 [4, 8] [nM]","IC50 [3, 9] [nM]","IC50 [4, 10] [nM]","IC50 ([1]; x = IC50 25-250 nM, read-out: CDK1/CCNB IC50 (25-250 nM)) [nM]","IC50 ([2]; x = IC50 25-250 nM, read-out: CDK6/CCND IC50 (25-250 nM)) [nM]",Compound
> 250,> 250,25 to 250,> 250,,,,,"CS(=O)(=O)c1ccc(Nc2cc3c(C#Cc4ccc(CC#N)cc4)nccc3cn2)cc1 [Ex 620, 2-(4-((7-((4-(methylsulfonyl)phenyl)amino)-2,6-naphthyridin-1-yl)ethynyl)phenyl)acetonitrile]"
> 250,> 250,25 to 250,> 250,,,,,"CS(=O)(=O)c1ccc(Nc2cc3c(C#Cc4cccc5cn[nH]c45)nccc3cn2)cc1 [Ex 621, 5-((1H-indazol-7-yl)ethynyl)-N-(4-(methylsulfonyl)phenyl)-2,6-naphthyridin-3-amine]"
> 250,> 250,25 to 250,> 250,,,,,"CS(=O)(=O)c1ccc(Nc2cc3c(C#Cc4cnc(N)cn4)nccc3cn2)cc1 [Ex 622, 5-((5-aminopyrazin-2-yl)ethynyl)-N-(4-(methylsulfonyl)phenyl)-2,6-naphthyridin-3-amine]"
> 250,> 250,25 to 250,> 250,,,,,"CS(=O)(=O)c1ccc(Nc2cc3c(C#Cc4cccnc4)nccc3cn2)cc1 [Ex 623, N-(4-(methylsulfonyl)phenyl)-5-(pyridin-3-ylethynyl)-2,6-naphthyridin-3-amine]"
> 250,> 250,25 to 250,> 250,,,,,"CN1Cc2cc(-c3nccc4cnc(Nc5ccc(S(C)(=O)=O)cc5)cc34)ccc2C1=O [Ex 624, 2-methyl-5-(7-((4-(methylsulfonyl)phenyl)amino)-2,6-naphthyridin-1-yl)isoindolin-1-one]"
> 250,> 250,25 to 250,> 250,,,,,"CS(=O)(=O)c1ccc(Nc2cc3c(C#Cc4ccc(O)cn4)nccc3cn2)cc1 [Ex 627, 6-((7-((4-(methylsulfonyl)phenyl)amino)-2,6-naphthyridin-1-yl)ethynyl)pyridin-3-ol]"
> 250,> 250,,> 250,< 25,,,,"CC(=O)Nc1ccc(C#Cc2nccc3cnc(Nc4ccc(S(C)(=O)=O)cc4)cc23)cc1 [Ex 631, N-(4-((7-((4-(methylsulfonyl)phenyl)amino)-2,6-naphthyridin-1-yl)ethynyl)phenyl)acetamide]"
> 250,> 250,25 to 250,> 250,,,,,"CS(=O)(=O)c1ccc(Nc2cc3c(C#Cc4cnc(N)nc4)nccc3cn2)cc1 [Ex 633, 5-((2-aminopyrimidin-5-yl)ethynyl)-N-(4-(methylsulfonyl)phenyl)-2,6-naphthyridin-3-amine]"
> 250,> 250,,> 250,< 25,,,,"CNC(=O)c1ccc(C#Cc2nccc3cnc(Nc4ccc(S(C)(=O)=O)cc4)cc23)cc1 [Ex 634, N-methyl-4-((7-((4-(methylsulfonyl)phenyl)amino)-2,6-naphthyridin-1-yl)ethynyl)benzamide]"
> 250,> 250,25 to 250,> 250,,,,,"CS(=O)(=O)c1ccc(Nc2cc3c(C#Cc4cnn(C5CC5)c4)nccc3cn2)cc1 [Ex 635, 5-((1-cyclopropyl-1H-pyrazol-4-yl)ethynyl)-N-(4-(methylsulfonyl)phenyl)-2,6-naphthyridin-3-amine]"
> 250,> 250,25 to 250,> 250,,,,,"CS(=O)(=O)c1ccc(Nc2cc3c(C#Cc4ccc(OC(F)F)cc4)nccc3cn2)cc1 [Ex 636, 5-((4-(difluoromethoxy)phenyl)ethynyl)-N-(4-(methylsulfonyl)phenyl)-2,6-naphthyridin-3-amine]"
> 250,> 250,,> 250,< 25,,,,"Cn1nccc1C#Cc1nccc2cnc(Nc3ccc(S(C)(=O)=O)cc3)cc12 [Ex 637, 5-((1-methyl-1H-pyrazol-5-yl)ethynyl)-N-(4-(methylsulfonyl)phenyl)-2,6-naphthyridin-3-amine]"
> 250,> 250,,,< 25,25 to 250,,,"CS(=O)(=O)c1ccc(Nc2cc3c(C#Cc4ccc5cn[nH]c5c4)nccc3cn2)cc1 [Ex 638, 5-((1H-indazol-6-yl)ethynyl)-N-(4-(methylsulfonyl)phenyl)-2,6-naphthyridin-3-amine]"
> 250,> 250,25 to 250,> 250,,,,,"CS(=O)(=O)c1ccc(Nc2cc3c(-c4ccc5nn(CCO)cc5c4)nccc3cn2)cc1 [Ex 639, 2-(5-(7-((4-(methylsulfonyl)phenyl)amino)-2,6-naphthyridin-1-yl)-2H-indazol-2-yl)ethan-1-ol]"
,,,,< 25,25 to 250,25 to 250,25 to 250,"CNC(=O)Cn1ncc2c(C)c(-c3nccc4cnc(Nc5ccc(S(C)(=O)=O)cc5)cc34)ccc21 [Ex 640, N-methyl-2-(4-methyl-5-(7-((4-(methylsulfonyl)phenyl)amino)-2,6-naphthyridin-1-yl)-1H-indazol-1-yl)acetamide]"
> 250,> 250,25 to 250,> 250,,,,,"Cc1c(C#N)ccc(C#Cc2nccc3cnc(Nc4ccc(S(C)(=O)=O)cc4)cc23)c1C [Ex 643, 2,3-dimethyl-4-((7-((4-(methylsulfonyl)phenyl)amino)-2,6-naphthyridin-1-yl)ethynyl)benzonitrile]"
> 250,> 250,25 to 250,> 250,,,,,"CN1Cc2cc(-c3nccc4cnc(Nc5ccc(S(C)(=O)=O)cc5)cc34)ccc2CC1=O [Ex 644, 2-methyl-7-(7-((4-(methylsulfonyl)phenyl)amino)-2,6-naphthyridin-1-yl)-1,4-dihydroisoquinolin-3(2H)-one]"
> 250,> 250,25 to 250,> 250,,,,,"CS(=O)(=O)c1ccc(Nc2cc3c(C#Cc4ccc5[nH]ncc5c4)nccc3cn2)cc1 [Ex 645, 5-((1H-indazol-5-yl)ethynyl)-N-(4-(methylsulfonyl)phenyl)-2,6-naphthyridin-3-amine]"
> 250,> 250,25 to 250,> 250,,,,,"COc1ccc(C#Cc2nccc3cnc(Nc4ccc(S(C)(=O)=O)cc4)cc23)cn1 [Ex 646, 5-((6-methoxypyridin-3-yl)ethynyl)-N-(4-(methylsulfonyl)phenyl)-2,6-naphthyridin-3-amine]"
> 250,> 250,,> 250,< 25,,,,"CS(=O)(=O)c1ccc(Nc2cc3c(C#Cc4ccc(C#N)cc4C(F)(F)F)nccc3cn2)cc1 [Ex 647, 4-((7-((4-(methylsulfonyl)phenyl)amino)-2,6-naphthyridin-1-yl)ethynyl)-3-(trifluoromethyl)benzonitrile]"
> 250,> 250,,> 250,< 25,,,,"CS(=O)(=O)c1ccc(Nc2cc3c(C#Cc4ccc5nc[nH]c5c4)nccc3cn2)cc1 [Ex 648, 5-((1H-benzo[d]imidazol-6-yl)ethynyl)-N-(4-(methylsulfonyl)phenyl)-2,6-naphthyridin-3-amine]"
> 250,> 250,25 to 250,> 250,,,,,"CS(=O)(=O)c1ccc(Nc2cc3c(-c4ccc5c(c4)CNC(=O)C5)nccc3cn2)cc1 [Ex 649, 7-(7-((4-(methylsulfonyl)phenyl)amino)-2,6-naphthyridin-1-yl)-1,4-dihydroisoquinolin-3(2H)-one]"
> 250,> 250,25 to 250,> 250,,,,,"CS(=O)(=O)c1ccc(Nc2cc3c(C#Cc4ccc(C#N)c(F)c4)nccc3cn2)cc1 [Ex 650, 2-fluoro-4-((7-((4-(methylsulfonyl)phenyl)amino)-2,6-naphthyridin-1-yl)ethynyl)benzonitrile]"
> 250,> 250,25 to 250,> 250,,,,,"CS(=O)(=O)c1ccc(Nc2cc3c(C#Cc4ccc(C#N)c(F)c4F)nccc3cn2)cc1 [Ex 651, 2,3-difluoro-4-((7-((4-(methylsulfonyl)phenyl)amino)-2,6-naphthyridin-1-yl)ethynyl)benzonitrile]"
